Data: patent US8178506B2, “Oligomeric compounds and compositions for use in modulation of small non-coding RNAs” (Regulus Therapeutics Inc., priority 2003, dated 2012)
In the oligonucleotide strings, read from the 5' end, every base follows the letter of its sugar. An asterisk marks phosphorothioate; unmarked linkages are phosphodiester. Other units and linkages are bracketed, terminal groups are in braces. A string of capitals states the bases alone. e = 2'-O-(2-methoxyethyl) (MOE); [5mC] = 5-methylcytosine; d = 2'-deoxy (DNA)

Assays:
T47D cells = assay: Caspase-3 activity assay (apoptosis) in T47D cells; conditions: T47D cells, 48 hours; for Fold Increase over UTC (caspase-3 activity, apoptosis): 200 nM oligomeric compound
PEPCK-c = PEPCK-c mRNA expression in HepG2 cells; assay type: cell-based, human; conditions: for PEPCKc mRNA expression: Experiment 2, insulin treated: HepG2 cells transfected with oligomeric compound, 1 nM insulin for four hours, UTC + 1 nM insulin = 100
Experimental: (§1) Approximately 28 hours after transfection, the cells are subjected to serum starvation for a period of 12 to 16 hours, using serum-free growth medium. Following serum starvation, cells are treated with 1 nM insulin (insulin-treated) or are left untreated (basal conditions) for approximately four hours. At the same time, untreated control cells in both plates are treated with 100 nM insulin to determine the maximal insulin response. Following insulin treatment (forty-eight hours after transfection), total RNA is harvested from all samples, and the amount of total RNA from each sample is determined using a Ribogreen assay (Invitrogen Corporation, Carlsbad, Calif.). Real-time PCR is performed on the total RNA samples using primer/probe sets for three insulin responsive genes: insulin-like growth factor binding protein-1 (IGFBP-1), cytosolic PEPCK (PEPCK-C), and follistatin. Gene expression levels obtained by real-time PCR are normalized for total RNA content in the samples.
(§2) Oligomeric compounds of the present invention were tested for their effects on insulin signaling in HepG2 cells. HepG2 cells were plated at 7500 cells/well in collagen coated 96-well plates. The following day, cells were transfected with oligomeric compounds targeting miRNAs using 100 nM oligomeric compound in LIPOFECTIN™ (Invitrogen Corporation, Carlsbad, Calif.) in two 96-well plates. The oligomeric compounds were tested in triplicate on each 96-well plate, except for positive and negative controls, which were measured up to six times per plate. At the end of transfection, the transfection medium was replaced by regular growth medium. Twenty-eight hours post-transfection, the cells were subjected to overnight (sixteen to eighteen hours) serum starvation using serum free growth medium. Forty-four hours post-transfection, the cells in the transfected wells were treated with either no insulin (“basal” Experiment 1, for identification of insulin-mimetic compounds) or with 1 nM insulin (“insulin treated” Experiment 2, for identification of insulin sensitizers) for four hours. At the same time, in both plates, cells in some of the un-transfected control wells are treated with 100 nM insulin to determine maximal insulin response. At the end of the insulin or no-insulin treatment (forty-eight hours post-transfection), total RNA is isolated from both the basal and insulin treated (1 nM) 96-well plates, and the amount of total RNA from each sample is determined using a Ribogreen assay (Molecular Probes, Eugene, Oreg.). Real-time PCR is performed on all the total RNA samples using primer/probe sets for three insulin responsive genes: PEPCK-c, IGFBP-1 and follistatin. Expression levels for each gene are normalized to total RNA, and values+standard deviation are expressed relative to the transfectant only untreated control (UTC) and negative control compounds.
(§3) Protocols for treatment of HepG2 cells and transfection of oligomeric compounds are as described in Example 18. Also as described in Example 18, forty-four hours post-transfection, the cells in the transfected wells were treated with either no insulin (“basal” Experiment 3 (below), for identification of insulin-mimetic compounds) or with 1 nM insulin (“insulin treated” Experiment 4 (below), for identification of insulin sensitizers) for four hours. At the same time, in both plates, cells in some of the un-transfected control wells are treated with 100 nM insulin to determine maximal insulin response. At the end of the insulin or no-insulin treatment (forty-eight hours post-transfection), total RNA is isolated from both the basal and insulin treated (1 nM) 96-well plates, and the amount of total RNA from each sample is determined using a Ribogreen assay (Molecular Probes, Eugene, Oreg.).

follistatin = assay: Follistatin mRNA expression in HepG2 cells; assay type: cell-based, human; conditions: for Follistatin mRNA expression: Experiment 2, insulin treated: HepG2 cells transfected with oligomeric compound, 1 nM insulin for four hours, UTC + 1 nM insulin = 100
Experimental: as §1, §2, §3

IGFBP-1 = IGFBP-1 mRNA expression in HepG2 cells; assay type: cell-based, human; conditions: for IGFBP1 mRNA expression: Experiment 2, insulin treated: HepG2 cells transfected with oligomeric compound, 1 nM insulin for four hours, UTC + 1 nM insulin = 100
Experimental: as §1, §2, §3

[1] = system: BJ, B16-F10, T47D, T47Dp53 and HeLa cells; assay: Cell cycle assay (propidium iodide flow cytometry), cell line panel; assay type: cell-based; conditions: 150 nM oligomeric compound, 4.5 μg/ml LIPOFECTIN, after 72 hours, propidium iodide flow cytometry
HeLa cells = assay: Cell cycle assay in HeLa cells; assay type: cell-based, human; conditions: HeLa cells, 150 nM oligomeric compound; for % cells aneuploid / % cells in cell cycle phase G1 / % cells in cell cycle phase G2/M / % cells in cell cycle phase S / % cells in cell cycle phase subG1: 24 hours, relative to untreated control (UTC = 100); for % cells in cell cycle phase: G1 / % cells in cell cycle phase: G2/M / % cells in cell cycle phase: S / % cells in cell cycle phase: aneuploid / % cells in cell cycle phase: subG1: 48 hours after treatment, relative to untreated control (UTC=100)
PPARγ = PPARγ mRNA expression in adipocytes (real-time PCR); assay type: cell-based, human; conditions: differentiating adipocytes transfected with oligomeric compound; Table 75
HSL = HSL mRNA expression in adipocytes (real-time PCR); assay type: cell-based, human; conditions: differentiating adipocytes transfected with oligomeric compound; Table 75
adipocytes = assay: Triglyceride accumulation assay in adipocytes; assay type: cell-based, human; conditions: differentiating adipocytes transfected with oligomeric compound; Table 75
aP2 = aP2 mRNA expression in adipocytes (real-time PCR); assay type: cell-based, human; conditions: differentiating adipocytes transfected with oligomeric compound; Table 75
Glut4 = Glut4 mRNA expression in adipocytes (real-time PCR); assay type: cell-based, human; conditions: differentiating adipocytes transfected with oligomeric compound; Table 75
[2] = Experiment 3, basal (no insulin), HepG2 cells, 48 hours post-transfection
[3] = Experiment 4, insulin-sensitization: HepG2 cells treated with 1 nM insulin for four hours, 48 h post-transfection, mRNA by real-time PCR
[4] = HepG2 cells, Experiment 1, basal (no insulin), four hours, UTC = 100

328384 (eT*e[5mC]*eA*e[5mC]*eG*dT*dG*dG*dA*dG*dA*dG*dG*dA*dG*eT*eT*eA*eA*eA; antisense) [compound 328384]
Fold Increase over UTC (caspase-3 activity, apoptosis) (T47D cells; experiment of Table 11): 1.0 fold
PEPCK-c (% UTC) (PEPCK-c; [2]): 142 % UTC
PEPCK-c (% UTC) (PEPCK-c; [3]): 114 % UTC
Follistatin (% UTC) (follistatin; [2]): 110 % UTC
Follistatin (% UTC) (follistatin; [3]): 121 % UTC
IGFBP-1 (% UTC) (IGFBP-1; [2]): 139 % UTC
IGFBP-1 (% UTC) (IGFBP-1; [3]): 102 % UTC

328396 (antisense e[5mC]*eT*eG*eG*eT*dT*dG*dG*dG*dT*dA*dT*dG*dA*dG*eA*e[5mC]*eA*eG*eA) [compound 328396]
G1 (percentage of cells in phase of the cell cycle) [1]: 56.8%
G2/M (percentage of cells in phase of the cell cycle) [1]: 15%
S (percentage of cells in phase of the cell cycle) [1]: 28.2%
SubG1 (percentage of cells in phase of the cell cycle) [1]: 4.6%
aneuploid (percentage of cells) [1]: 19.8%
Fold Increase over UTC (caspase-3 activity, apoptosis) (T47D cells; experiment of Table 12): 0.8 fold
PEPCKc mRNA expression (PEPCK-c): 65
% cells aneuploid (HeLa cells): 88%
% cells in cell cycle phase G1 (HeLa cells): 94%
% cells in cell cycle phase G2/M (HeLa cells): 139%
% cells in cell cycle phase S (HeLa cells): 87%
% cells in cell cycle phase subG1 (HeLa cells): 97%
% cells in cell cycle phase: G1 (HeLa cells): 89%
% cells in cell cycle phase: G2/M (HeLa cells): 119%
% cells in cell cycle phase: S (HeLa cells): 114%
% cells in cell cycle phase: aneuploid (HeLa cells): 129%
% cells in cell cycle phase: subG1 (HeLa cells): 88%
Follistatin mRNA expression (follistatin): 135
IGFBP1 mRNA expression (IGFBP-1): 128

328397 (antisense eT*eT*eG*eA*eT*d[5mC]*d[5mC]*dA*dT*dA*dT*dG*d[5mC]*dA*dA*e[5mC]*eA*eA*eG*eG) [compound 328397]
Fold Increase over UTC (caspase activity) (T47D cells; 200 nM, relative to untreated control): 1.2
PEPCKc mRNA expression (PEPCK-c): 76
% cells aneuploid (HeLa cells): 91%
% cells in cell cycle phase G1 (HeLa cells): 93%
% cells in cell cycle phase G2/M (HeLa cells): 142%
% cells in cell cycle phase S (HeLa cells): 86%
% cells in cell cycle phase subG1 (HeLa cells): 134%
% cells in cell cycle phase: G1 (HeLa cells): 97%
% cells in cell cycle phase: G2/M (HeLa cells): 109%
% cells in cell cycle phase: S (HeLa cells): 101%
% cells in cell cycle phase: aneuploid (HeLa cells): 96%
% cells in cell cycle phase: subG1 (HeLa cells): 74%
Follistatin mRNA expression (follistatin): 75
IGFBP1 mRNA expression (IGFBP-1): 57

328423 (antisense e[5mC]*e[5mC]*eA*e[5mC]*eA*dT*dA*dT*dA*d[5mC]*dA*dT*dA*dT*dA*eT*eA*e[5mC]*eG*e[5mC]) [compound 328423]
G1 (percentage of cells in phase of the cell cycle) [1]: 52.9%
G2/M (percentage of cells in phase of the cell cycle) [1]: 14.8%
S (percentage of cells in phase of the cell cycle) [1]: 32.4%
SubG1 (percentage of cells in phase of the cell cycle) [1]: 4.9%
aneuploid (percentage of cells) [1]: 15.3%
Fold Increase over UTC (caspase-3 activity, apoptosis) (T47D cells; experiment of Table 10): 0.6 fold
PEPCKc mRNA expression (PEPCK-c): 77
Follistatin mRNA expression (follistatin): 114
IGFBP1 mRNA expression (IGFBP-1): 69

328649 (eG*eT*eA*eG*eA*dT*dA*dA*d[5mC]*dT*dA*dA*dA*d[5mC]*dA*e[5mC]*eT*eA*e[5mC]*e[5mC]; antisense) [compound 328649]
Fold Increase over UTC (caspase-3 activity, apoptosis) (T47D cells; experiment of Table 10): 1.0 fold
PEPCKc mRNA expression (PEPCK-c): 86
Follistatin mRNA expression (follistatin): 69
IGFBP1 mRNA expression (IGFBP-1): 115

328773 (antisense eT*eA*e[5mC]*eT*eT*dT*dA*d[5mC]*dT*d[5mC]*d[5mC]*dA*dA*dG*dG*eT*eT*eT*eT*eA) [compound 328773]
G1 (percentage of cells in phase of the cell cycle) [1]: 56.4%
G2/M (percentage of cells in phase of the cell cycle) [1]: 16.7%
S (percentage of cells in phase of the cell cycle) [1]: 26.9%
SubG1 (percentage of cells in phase of the cell cycle) [1]: 2.7%
aneuploid (percentage of cells) [1]: 11.7%
PEPCK-c (% UTC) (PEPCK-c; [2]): 138 % UTC
PEPCK-c (% UTC) (PEPCK-c; [3]): 93 % UTC
Follistatin (% UTC) (follistatin; [2]): 131 % UTC
Follistatin (% UTC) (follistatin; [3]): 148 % UTC
IGFBP-1 (% UTC) (IGFBP-1; [2]): 148 % UTC
IGFBP-1 (% UTC) (IGFBP-1; [3]): 136 % UTC

341802 (antisense AGCUGCUUUUGGGAUUCCGUUG; all 2'-MOE, all phosphorothioate, methylation of C and T or U not given here) [compound 341802]
PPAR gamma mRNA (PPARγ): 127 percentage of untreated control (UTC)
HSL mRNA (HSL): 121 percentage of untreated control (UTC)
TG (triglyceride accumulation) (adipocytes): 155 percentage of untreated control (UTC)
PEPCKc mRNA (PEPCK-c; [4]): 98
aP2 mRNA (aP2): 98 percentage of untreated control (UTC)
Follistatin mRNA (follistatin; [4]): 136
GLUT4 mRNA (Glut4): 85 percentage of untreated control (UTC)
IGFBP1 mRNA (IGFBP-1; [4]): 186
